In patent US10022392B2, “Compositions based on methyl cyclodextrins for the treatment and/or prevention of diseases by increasing the HDL cholesterol level” (ROQUETTE FRERES, priority 2013, dated 2018):

Columns and labels:
[1] = test system: adult bovine aortic endothelial cells (ABAEs); test: Cholesterol efflux: 3H-cholesterol captured by the cyclodextrins from aortic endothelial cells; format: cell-based; conditions: 1 mM cyclodextrin, 2 hours, FIG. 2
From the text: (§1) Cells: The endothelial cells were adult bovine aortic endothelial cells (ABAEs).
Cyclodextrins: the cyclodextrins used were the following: a non-methylated β-cyclodextrin, hereinafter denoted “β-CD”, a methyl-β-cyclodextrin having an MS of 0.2, hereinafter denoted “MβCD-0.2”, a methyl-β-cyclodextrin having an MS of 0.67 (KLEPTOSE® CRYSMEB, ROQUETTE FRERES), hereinafter denoted “MβCD-0.67”, a methyl-β-cyclodextrin having an MS of 1.8 (RAMEB®, CYCLOLAB), hereinafter denoted “MβCD-1.8”.
0.5 μCi/ml of 3H-cholesterol was incorporated into serum (10% horse serum/calf serum (HS/CS)) for 6 hours at 37° C. for the purpose of obtaining a culture medium enriched with radioactive cholesterol. After this incorporation, the culture medium was finalized by incorporation of DMEM (Dulbecco's Modified Eagle's medium) supplemented with 10% HS, 10% CS, 1 ng/ml bFGF (basic fibroblast growth factor), 2 mM glutamine and 50 μg/ml gentamicin. […]
Two hours after the beginning of the incubation in the presence of each cyclodextrin, 500 μl of medium were removed and the radioactive cholesterol captured by the cyclodextrin was assayed by means of a scintillation counter (Tri-carb 2100TR). The radioactivity was measured in disintegrations per minute (DPM). The capacity of each cyclodextrin to capture cellular cholesterol was then estimated by performing the following calculation: ((1.4 ml/0.5 ml)×DPM measured). […]

[2] = test system: ABCA1; test: Expression of the ABCA1 transporter (real-time PCR) in endothelial cells treated with cyclodextrins; format: cell-based, bovine; conditions: 1 mM cyclodextrin, 24 hours, ABAEs, compared with control, FIG. 3
Experimental: as §1
(§2) The cells were then cultured in this radioactive medium for 36 hours in order to allow them to incorporate the radioactive cholesterol. The medium was then removed and the cells were rinsed twice with warm DMEM containing 0.1% of bovine serum albumin (BSA). The cells were then cultured in DMEM/1 ng/ml bFGF containing 1 mM of each cyclodextrin for 24 hours (1.4 ml/well).
(§3) After 24 hours of treatment with each cyclodextrin, the cells were rinsed twice in cold PBS (8 g/l NaCl, 0.2 g/l KCl, 0.2 g/l KH2PO4, 2.87 g/l NA2HPO4 (12H2O), pH 7.4) and lyzed using 500 μl of RLT lysis buffer […]. Three wells were used and pooled for each condition. […] At the end of this purification step, the mRNA concentration was estimated by virtue of the absorbance values obtained at 260, 280 and 320 nm. […]
(§4) The amplification was carried out over the course of 40 cycles with a hybridization temperature of 60° C. using the Biorad CFX96 thermocycler. For each pair of primers, the amplification specificity was verified by producing melting curves and the efficiency was determined by producing dilution curves. The expression levels measured were then normalized on the expression levels of β-actin and cyclophillin B using the ΔΔCt method. […]

[3] = test system: ABCG1; test: Expression of the ABCG1 transporter (real-time PCR) in endothelial cells treated with cyclodextrins; format: cell-based, bovine; conditions: 1 mM cyclodextrin, 24 hours, ABAEs, compared with control, FIG. 4
Experimental: as §1, §2, §3, §4

## OC[C@H]1O[C@@H]2O[C@H]3[C@H](O)[C@@H](O)[C@@H](O[C@H]4[C@H](O)[C@@H](O)[C@@H](O[C@H]5[C@H](O)[C@@H](O)[C@@H](O[C@H]6[C@H](O)[C@@H](O)[C@@H](O[C@H]7[C@H](O)[C@@H](O)[C@@H](O[C@H]8[C@H](O)[C@@H](O)[C@@H](O[C@H]1[C@H](O)[C@H]2O)O[C@@H]8CO)O[C@@H]7CO)O[C@@H]6CO)O[C@@H]5CO)O[C@@H]4CO)O[C@@H]3CO [βCD, β-cyclodextrin]
[1]
  Cholesterol efflux (radioactive cholesterol captured by the cyclodextrin): rapid and considerable efflux
[2]
  ABCA1 receptor expression (mRNA): strongly decreasing
[3]
  ABCG1 receptor expression (mRNA): strongly decreasing
